Source: patent US10065961B2, “Chiral N-acyl-5,6,7,(8-substituted)-tetrahydro-[1,2,4]triazolo[4,3-a]pyrazines as selective NK-3 receptor antagonists, pharmaceutical composition, methods for use in NK-3 receptor mediated disorders and chiral synthesis thereof” (Euroscreen S.A., priority 2011, dated 2018)

Tests used:
human NK1 receptor = human NK1 receptor (Homo sapiens (Human), UniProt P25103); assay: Human NK1 radioligand binding assay ([3H] substance P)
Procedure: (§1) Membrane suspensions were prepared from these cells.

human NK2 receptor = human NK2 receptor (Homo sapiens (Human), UniProt P21452); assay: Human NK2 radioligand binding assay ([125I]-Neurokinin A)
human NK2 receptor, sequence (P21452 whole entry): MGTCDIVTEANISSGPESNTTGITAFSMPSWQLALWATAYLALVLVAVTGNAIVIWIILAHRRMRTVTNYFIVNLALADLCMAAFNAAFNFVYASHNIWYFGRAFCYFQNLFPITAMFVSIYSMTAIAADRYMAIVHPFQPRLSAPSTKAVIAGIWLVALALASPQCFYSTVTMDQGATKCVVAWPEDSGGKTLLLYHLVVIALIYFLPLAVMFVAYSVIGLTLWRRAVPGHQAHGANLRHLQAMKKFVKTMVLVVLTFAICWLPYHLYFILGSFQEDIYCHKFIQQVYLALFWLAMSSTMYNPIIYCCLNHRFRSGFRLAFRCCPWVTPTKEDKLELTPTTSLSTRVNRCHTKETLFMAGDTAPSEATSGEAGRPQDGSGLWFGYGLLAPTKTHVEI
Procedure: as §1

[1] = test system: plasma testosterone levels; assay: Gonad-intact adult male rat, circulating levels of testosterone; conditions: gonad-intact male Sprague-Dawley rats, single intravenous 50 mg/kg dose, over 210 minute test period (AUC)
circulating LH levels = assay: Castrated male rat model, circulating levels of luteinizing hormone (LH); type: in vivo; conditions: castrated male Sprague-Dawley rats, single intravenous 10 mg/kg dose, 1 hour after dosing
Procedure: 1 on lutenizing hormone (‘LH’) plasma levels in castrated male, Sprague-Dawley rats measured 1 hour after dosing. […] Vehicle, N=10 rats; Compound no. 1, N=9 rats.
19 on lutenizing hormone (‘LH’) plasma levels in castrated male, Sprague-Dawley rats measured 1 hour after dosing. […] Vehicle, n=5 rats; Compound no. 19, n=5 rats.
Castrated Male Rat Model to Assess the Effect of Compound of Invention on Circulating Levels of Luteinizing Hormone (LH).
In humans and rodents, castration is well-precedented to permit heightened, persistent GnRH signaling and consequent elevation of circulating LH. Thus, a castrated rat model is used to provide a broad index for measurement of LH inhibition as a marker of test compound inhibition of the GnRH signaling pathway.
Castrated adult male Sprague-Dawley (SD) rats (150-175 g,) were purchased from Janvier (St Berthevin, France). […] The animals were allowed 2 weeks of postoperative recovery prior to study. Animals were handled on a daily basis. Standard diet and tap water were provided ad libitum. Animal cage litters were changed once a week. […]
After basal sampling (T0) a single dose of compounds of the invention or vehicle was administrated intravenously to rats. […] Serum LH levels were determined using radioimmunoassay kit from RIAZEN—Rat LH, Zentech (Liège, Belgium). […]

human NK1 receptor, sequence (P25103 whole entry): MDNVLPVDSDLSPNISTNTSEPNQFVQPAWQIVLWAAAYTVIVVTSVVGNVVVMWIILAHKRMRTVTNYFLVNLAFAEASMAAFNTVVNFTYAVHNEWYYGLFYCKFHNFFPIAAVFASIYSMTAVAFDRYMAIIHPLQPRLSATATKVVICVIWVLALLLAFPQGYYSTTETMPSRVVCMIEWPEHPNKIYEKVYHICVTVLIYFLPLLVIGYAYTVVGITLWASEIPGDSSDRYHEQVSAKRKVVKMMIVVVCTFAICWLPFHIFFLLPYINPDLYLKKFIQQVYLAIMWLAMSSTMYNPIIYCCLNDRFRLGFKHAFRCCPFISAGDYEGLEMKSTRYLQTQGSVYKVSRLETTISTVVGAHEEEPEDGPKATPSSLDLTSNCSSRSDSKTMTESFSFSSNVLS

Row | SMILES | inhibition at 10 µM (human NK1 receptor) [%] | inhibition at 10 µM (human NK2 receptor) [%] | plasma testosterone levels [1] | circulating LH levels (circulating LH levels)
1 | Cc1nc(-c2nnc3n2CCN(C(=O)c2ccc(-c4cccs4)cc2)[C@@H]3C)co1 [compound 11, (R)-(8-methyl-3-(2-methyloxazol-4-yl)-5,6-dihydro-[1,2,4]triazolo[4,3-a]pyrazin-7(8H)-yl)(4-(thiophen-2-yl)phenyl)methanone] | < 10 | < 25 | – | –
2 | C[C@@H]1c2nnc(-c3cccc(O)n3)n2CCN1C(=O)c1ccc(-c2cccs2)cc1 [compound 31, (R)-(3-(6-hydroxypyridin-2-yl)-8-methyl-5,6-dihydro-[1,2,4]triazolo[4,3-a]pyrazin-7(8H)-yl)(4-(thiophen-2-yl)phenyl)methanone] | < 10 | < 10 | – | –
3 | Cc1nc(-c2nnc3n2CCN(C(=O)c2ccc(-c4cccs4)cc2)[C@@H]3C)cs1 [Compound no. 1, (R)-(8-methyl-3-(2-methylthiazol-4-yl)-5,6-dihydro-[1,2,4]triazolo[4,3-a]pyrazin-7(8H)-yl)(4-(thiophen-2-yl)phenyl)methanone] | – | – | significantly suppressed | significantly suppressed
4 | Cc1csc(-c2nnc3n2CCN(C(=O)c2ccc(-c4cccs4)cc2)[C@@H]3C)n1 [Compound no. 19, (R)-(8-methyl-3-(4-methylthiazol-2-yl)-5,6-dihydro-[1,2,4]triazolo[4,3-a]pyrazin-7(8H)-yl)(4-(thiophen-2-yl)phenyl)methanone] | – | – | – | significantly suppressed
5 | Cc1nc(-c2nnc3n2CCN(C(=O)c2ccc(-c4cccs4)cc2)C3)cs1 [compound 3, (3-(2-methylthiazol-4-yl)-5,6-dihydro-[1,2,4]triazolo[4,3-a]pyrazin-7(8H)-yl)(4-(thiophen-2-yl)phenyl)methanone] | < 10 | < 10 | – | –
